Solubility and activation data for 54 compounds are collected here from US9868742B2, “Substituted imidazo[1,2-b]pyridazines, substituted imidazo[1,5-b] pyridazines, related compounds, and their use in the treatment of medical disorders” (Lysosomal Therapeutics Inc., priority 2016, dated 2018).

Molecules are shown by their SMILES. In brackets after ≈: the same amount, converted by molar mass.

Series [1] in a line: Compound solubility in water. Type of series: physicochemical.
Series [2] deals with T1, glucocerebrosidase (Gcase) (Homo sapiens, UniProt P04062).
T1 sequence (P04062 40-536): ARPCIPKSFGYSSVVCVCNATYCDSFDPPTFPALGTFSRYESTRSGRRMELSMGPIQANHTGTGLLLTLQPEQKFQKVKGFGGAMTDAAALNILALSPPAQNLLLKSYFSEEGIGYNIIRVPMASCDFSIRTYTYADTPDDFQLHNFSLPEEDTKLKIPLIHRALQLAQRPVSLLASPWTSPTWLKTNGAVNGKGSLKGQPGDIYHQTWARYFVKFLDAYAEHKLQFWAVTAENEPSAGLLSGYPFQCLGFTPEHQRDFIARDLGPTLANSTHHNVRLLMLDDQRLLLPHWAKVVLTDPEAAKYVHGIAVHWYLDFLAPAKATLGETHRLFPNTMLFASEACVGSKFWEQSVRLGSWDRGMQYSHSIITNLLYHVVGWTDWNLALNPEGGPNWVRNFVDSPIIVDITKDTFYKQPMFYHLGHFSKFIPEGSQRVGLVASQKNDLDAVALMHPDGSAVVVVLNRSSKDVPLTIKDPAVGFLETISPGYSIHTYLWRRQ
The series is described as follows: Glucocerebrosidase (Gcase) activation assay, 4-methylumbelliferyl-beta-D-glucopyranoside substrate with saposin C. Type of series: biochemical. Particulars: 10 nM GCase, 100 nM saposin C, pH 4.7. The method, then: The ability of exemplary compounds to activate glucocerebrosidase (Gcase) was measured.
A 484 μL aliquot of a 1.0 mg/mL solution of phosphatidylserine (PS) (Sigma P7769) in chloroform was evaporated under a stream of nitrogen for 1 hour. The lipid film was dissolved over 4 minutes of vigorous vortexing in 40 mL of 176 mM K2HPO4/50 mM citric acid (pH 4.7) containing 7.5 μL of triton X-100, resulting in a mixed micellar preparation with a composition of 0.32 mM triton and 0.37 mol % PS. 4-Methylumbelliferyl-beta-D-glucopyranoside (ACROS-337025000) was dissolved in the micellar solution to a final concentration of 2 mM for use as the reaction substrate.
Test compounds were diluted to the desired concentrations with dimethylsulfoxide (DMSO) from 10 mM stocks, and 0.41 μL of the DMSO compound mixture was added to 100 μL of micellar solution containing 10 nM GCase and 100 nM saposin C (Enzo ALX-201-262-C050). Pre-incubation was allowed to occur for 30 minutes at room temperature, after which the reaction was initiated by combining 25 μL of substrate solution with 25 μL of compound/GCase/saposin mixture. The reaction proceeded for 15 minutes at room temperature and was stopped by adding 150 μL of 1M glycine, pH 12.5. The endpoint of the reaction was monitored by measuring fluorescence intensity (excitation: 365 nm; emission: 440 nm) on a SpectraMax i3 instrument (Molecular Devices). […]

Broadly, the solubility is the dissolved amount per volume that the medium holds. Higher therefore signals a readily soluble substance.

The compound `CCCCCCOC1CCC(NC(=O)c2cnc3cc(C)c(Cl)nn23)CC1` (stereo not shown) gave a solubility in series [1] of 16.8 µg/mL (≈ 42.8 µM).
`Cc1cc2ncc(C(=O)Nc3ccc4c(c3)CCC4)n2nc1Cl` returned a solubility in series [1] of 1.5 µg/mL (≈ 4.59 µM). This solubility is about 11-fold lower than that of the compound before.
Same read-out and setting: under `CCC(NC(=O)c1cnc2ccc(Cl)nn12)c1ccccc1` (stereo not shown) stands 15.4 µg/mL (≈ 49.1 µM); under `CCCCCO[C@H]1CC[C@H](NC(=O)c2cnc3ccc(Cl)nn23)CC1`, 17 µg/mL (≈ 46.6 µM); under `Cc1cc(C)c2ncc(C(=O)Nc3ccc(-c4cocn4)cc3)n2n1`, 1.8 µg/mL (≈ 5.4 µM).
The same measure, in the same setting: the same measure for `Cc1cc(C)c2ncc(C(=O)Nc3ccc4c(c3)CCC4)n2n1`: 0.9 µg/mL (≈ 2.94 µM); for `Cc1cc(C)c2ncc(C(=O)NC3CCCc4ccccc43)n2n1` (stereo not shown): 8.8 µg/mL (≈ 27.5 µM); for `CCC(NC(=O)c1cnc2c(C)cc(C)nn12)c1ccccc1` (stereo not shown): 18.8 µg/mL (≈ 61 µM).
Same read-out and setting: the same measure for `CCCCCO[C@H]1CC[C@H](NC(=O)c2cnc3c(C)cc(C)nn23)CC1`: 3.9 µg/mL (≈ 10.9 µM).
The compound `Cc1cc(C)c2ncc(C(=O)NC3(C)CCCc4ccccc43)n2n1` (stereo not shown) yielded a solubility in series [1] of 7.2 µg/mL (≈ 21.5 µM).
Still for that read-out and setting: the same measure for `C#Cc1ccc(NC(=O)c2cnc3c(C)cc(C)nn23)cc1`: 0.3 µg/mL (≈ 1.03 µM); for `CCCCCCOC1CCC(NC(=O)c2cnc3c(C)cc(Cl)nn23)CC1` (stereo not shown): 3.1 µg/mL (≈ 7.89 µM); for `Cc1cc(Cl)nn2c(C(=O)Nc3ccc4c(c3)CCC4)cnc12`: 0.3 µg/mL (≈ 0.918 µM).
The compound `C#Cc1ccc(NC(=O)c2cnc3ccc(Cl)nn23)cc1` returned a solubility in series [1] of 15 µg/mL (≈ 50.6 µM). Against the preceding compound, the solubility is about 50-fold higher.
`C#Cc1ccc(NC(=O)c2ncc3c(C)cc(C)nn23)cc1` registered a solubility in series [1] of 1.8 µg/mL (≈ 6.2 µM).
`CCCCCOC1CCC(NC(=O)c2ncc3c(C)cc(C)nn23)CC1` (stereo not shown): in series [2] (0.1 μM test compound, read-out: Percent Gease Activation 0.1 μM Test Compound), the activation at 0.1 µM fell in the range of 5 to 20%. The activation at 1 µM in series [2] (1 μM test compound, read-out: Percent Gease Activation 1 μM Test Compound) is more than 20%.
As to `CCC(NC(=O)c1ncc2c(C)cc(C)nn12)c1ccccc1` (stereo not shown), the solubility in series [1] stood at 29.6 µg/mL (≈ 96 µM).
Still for that read-out and setting: under `Cc1cc(C)c2cnc(C(=O)NC3CCCc4ccccc43)n2n1` (stereo not shown) stands 38.4 µg/mL (≈ 120 µM).
Still for that read-out and setting: under `Cc1cc(C)c2cnc(C(=O)Nc3ccc4c(c3)CCC4)n2n1` stands 2.1 µg/mL (≈ 6.85 µM).
Same read-out and setting: the same measure for `Cc1cc(C)c2cnc(C(=O)Nc3ccc(-c4cocn4)cc3)n2n1`: 0.4 µg/mL (≈ 1.2 µM).
In the case of `Cc1cc(C)c2ncc(C(=O)NC(C)(C)C3CC3)n2n1`, the concentration in solution in series [1] (solubility) was 27.3 µg/mL (≈ 100 µM).
On the same count and under the same terms, under `Cc1cc(-c2ccc(F)cc2)nn2c(C(=O)NC(C)(C)C3CC3)cnc12` stands 0.9 µg/mL (≈ 2.55 µM); under `Cc1cc(-c2ccc(F)cc2)nn2c(C(=O)N[C@@H](C)C3CC3)cnc12`, 6.5 µg/mL (≈ 19.2 µM).
As to `Cc1cc(-c2cccc(F)c2)nn2c(C(=O)NC(C)(C)C3CC3)cnc12`, in series [1], the solubility is 1.9 µg/mL (≈ 5.39 µM).
In the case of `Cc1cc(-c2cccc(F)c2)nn2c(C(=O)NC(C3CC3)C(F)(F)F)cnc12` (stereo not shown), the solubility in series [1] is 0.03 µg/mL (≈ 0.0765 µM).
On the same count and under the same terms, the same measure for `COc1cccc(-c2cc(C)c3ncc(C(=O)NC(C4CC4)C(F)(F)F)n3n2)c1` (stereo not shown): 1.4 µg/mL (≈ 3.46 µM); for `COc1cccc(-c2cc(C)c3ncc(C(=O)NC(C4CC4)C4CC4)n3n2)c1`: 2.7 µg/mL (≈ 7.17 µM).
The same measure, in the same setting: under `Cc1cc(-c2ccns2)nn2c(C(=O)NC(C)(C)C3CC3)cnc12` stands 6.7 µg/mL (≈ 19.6 µM); under `C#CC(C)(C)NC(=O)c1cnc2c(C)cc(-c3ccns3)nn12`, 17.2 µg/mL (≈ 52.9 µM); under `Cc1cc(-c2ccns2)nn2c(C(=O)NC(C3CC3)C(F)(F)F)cnc12` (stereo not shown), 0.5 µg/mL (≈ 1.31 µM).
Same read-out and setting: the same measure for `Cc1cc(-c2ccc3ocnc3c2)nn2c(C(=O)NC(C)C3CC3)cnc12` (stereo not shown): 1.4 µg/mL (≈ 3.87 µM); for `Cc1cc(-c2ccc3ocnc3c2)nn2c(C(=O)NC(C3CC3)C(F)(F)F)cnc12` (stereo not shown): 0.2 µg/mL (≈ 0.481 µM).
In turn, `Cc1cc(-c2cccc3ocnc23)nn2c(C(=O)NC(C3CC3)C(F)(F)F)cnc12` (stereo not shown) had a solubility in series [1] of 1.6 µg/mL (≈ 3.85 µM).
Same read-out and setting: the same measure for `COc1cccc(-c2cc(C)c3ncc(C(=O)NC(C4CC4)C(F)(F)F)n3n2)n1` (stereo not shown): 2.2 µg/mL (≈ 5.43 µM).
Still for that read-out and setting: under `Cc1cc(-c2cccc(F)c2)nn2c(C(=O)NC(C)C(F)(F)F)cnc12` (stereo not shown) stands 1.9 µg/mL (≈ 5.19 µM).
On the same count and under the same terms, the same measure for `Cc1cc(-c2cccc3ncoc23)nn2c(C(=O)NC(C3CC3)C(F)(F)F)cnc12` (stereo not shown): 0.3 µg/mL (≈ 0.722 µM); for `Cc1cc(-c2cccc3ncoc23)nn2c(C(=O)NC(C)C(F)(F)F)cnc12` (stereo not shown): 4.4 µg/mL (≈ 11.3 µM).
As for `Cc1cc(-c2ccc3ocnc3c2)nn2c(C(=O)NC(C)C(F)(F)F)cnc12` (stereo not shown), in series [1], the solubility worked out at 1.3 µg/mL (≈ 3.34 µM).
The same measure, in the same setting: under `Cc1cc(-c2ccc(F)cc2C#N)nn2c(C(=O)NC(C3CC3)C(F)(F)F)cnc12` (stereo not shown) stands 0.7 µg/mL (≈ 1.68 µM); under `Cc1cc(-c2ccc(F)cc2C#N)nn2c(C(=O)NC(C)C(F)(F)F)cnc12` (stereo not shown), 3.9 µg/mL (≈ 9.97 µM).
The compound `Cc1cc(-c2cncc(Cl)c2)nn2c(C(=O)N[C@@H](C3CC3)C(F)(F)F)cnc12` displayed a solubility in series [1] of 0.3 µg/mL (≈ 0.732 µM).
On the same count and under the same terms, under `Cc1cc(-c2cncc(F)c2)nn2c(C(=O)NC(C3CC3)C(F)(F)F)cnc12` (stereo not shown) stands 1.3 µg/mL (≈ 3.3 µM); under `Cc1nc2cc(-c3cc(C)c4ncc(C(=O)NC(C)C(F)(F)F)n4n3)ccc2o1` (stereo not shown), 1.5 µg/mL (≈ 3.72 µM); under `Cc1cc(N2CCCC(F)(F)C2)nn2c(C(=O)N[C@@H](C3CC3)C(F)(F)F)cnc12`, 1.9 µg/mL (≈ 4.55 µM).
Turning to `Cc1cc(-c2ccccc2C#N)nn2c(C(=O)NC(C3CC3)C(F)(F)F)cnc12` (stereo not shown), the solubility in series [1] came to 0.1 µg/mL (≈ 0.25 µM).
The same measure, in the same setting: the same measure for `Cc1cc(-c2ccc(F)o2)nn2c(C(=O)NC(C3CC3)C(F)(F)F)cnc12` (stereo not shown): 0.6 µg/mL (≈ 1.57 µM); for `Cc1cc(C#N)c(-c2cc(C)c3ncc(C(=O)N[C@@H](C)C(F)(F)F)n3n2)o1`: 0.1 µg/mL (≈ 0.265 µM).
On to `C#CC(NC(=O)c1ncc2c(C)cc(-c3cccc(F)c3)nn12)C(F)(F)F` (stereo not shown) [2-(3-Fluorophenyl)-4-methyl-N-(1,1,1-trifluorobut-3-yn-2-yl)imidazo[1,5-b]pyridazine-7-carboxamide], for which the solubility in series [1] amounted to 0.7 µg/mL (≈ 1.86 µM).
Same read-out and setting: the same measure for `Cc1cc(-c2cccc(F)c2)nn2c(C(=O)N[C@H](C3CC3)C(F)(F)F)ncc12` [(R)—N-(1-Cyclopropyl-2,2,2-trifluoroethyl)-2-(3-fluorophenyl)-4-methylimidazo[1,5-b]pyridazine-7-carboxamide]: 0.2 µg/mL (≈ 0.51 µM); for `Cc1cc(-c2ccc3ncn(C)c3c2)nn2c(C(=O)N[C@H](C3CC3)C(F)(F)F)cnc12` [(R)—N-(1-Cyclopropyl-2,2,2-trifluoroethyl)-8-methyl-6-(1-methyl-1H-benzo[d]imidazol-6-yl)imidazo[1,2-b]pyridazine-3-carboxamide]: 1 µg/mL (≈ 2.33 µM).
For `Cc1cc(-c2cncc(Cl)c2)nn2c(C(=O)N[C@@H](C3CC3)C(F)(F)F)ncc12` [(S)-2-(5-Chloropyridin-3-yl)-N-(1-cyclopropyl-2,2,2-trifluoroethyl)-4-methylimidazo[1,5-b]pyridazine-7-carboxamide], the concentration in solution in series [1] (solubility) came to 0.7 µg/mL (≈ 1.71 µM).
Same read-out and setting: the same measure for `Cc1cc(-c2cccc(F)c2C#N)nn2c(C(=O)N[C@@H](C)C(F)(F)F)cnc12` [(S)-6-(2-Cyano-3-fluorophenyl)-8-methyl-N-(1,1,1-trifluoropropan-2-yl)imidazo[1,2-b]pyridazine-3-carboxamide]: 1.1 µg/mL (≈ 2.81 µM); for `Cc1cc(-c2cccc(F)c2C#N)nn2c(C(=O)N[C@@H](C)C3CC3)cnc12` [(S)-6-(2-Cyano-3-fluorophenyl)-N-(1-cyclopropylethyl)-8-methylimidazo[1,2-b]pyridazine-3-carboxamide]: 0.5 µg/mL (≈ 1.38 µM).
In turn, `Cc1cc(-c2cccc(F)c2)nn2c(C(=O)N[C@@H](C3CC3)C(F)(F)F)ncc12` [(S)—N-(1-Cyclopropyl-2,2,2-trifluoroethyl)-2-(3-fluorophenyl)-4-methylimidazo[1,5-b]pyridazine-7-carboxamide] showed a solubility in series [1] of 0.2 µg/mL (≈ 0.51 µM).
